Test systems include A498; A549; ACHN; CCRF-CEM; DU-145; MDA-MB-435; NCI-H226; NCI-H23; NCI/ADR-RES; OVCAR-3; OVCAR-4; OVCAR-5; PC-3; RPMI-8226; SK-MEL-5; SR; T47D; UACC-257; UACC-62; HOP-92.
What all share (assay): NCI anticancer screen, dose series, 48 h

This note sets out measurements from ChEMBL document CHEMBL1201862, “PubChem BioAssay data set” (2004).

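Compound exposure: 48 hours, 5 concentrations, 96-well plates. Abbreviation: GI50, concentration required for 50% inhibition of growth.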 Activity calls are given as the source filed them. Rule as the data show it: active = GI50 up to about 1.1 µM and inactive = higher.

Take `CN(Cc1cnc2nc(N)nc(N)c2n1)c1ccc(C(=O)NC(CCC(=O)O)C(=O)O)c2ccccc12` (stereo unspecified): the GI50 with A498 was 0.0526 µM (active); in the experiment on A549, 0.00286 µM (active); in the experiment on ACHN, 0.00441 µM (active); in the experiment with CCRF-CEM, 0.000843 µM (active); in the experiment with DU-145, 0.00938 µM (active); in the experiment with MDA-MB-435 it was 0.00247 µM (active). For the same compound, the GI50 was < 0.1 µM (active) in the experiment on NCI-H226; 0.00773 µM (active) in the experiment on NCI-H23; 0.00395 µM (active) in the experiment with NCI/ADR-RES; 0.0429 µM (active) with OVCAR-3; < 0.1 µM (active) in the experiment with OVCAR-4; 0.0185 µM (active) in the experiment on OVCAR-5. Besides, the GI50 is 0.000479 µM (active) with PC-3; 0.00764 µM (active) with RPMI-8226; 0.0107 µM (active) with SK-MEL-5; 0.0025 µM (active) with SR; 0.204 µM (active) in the experiment on T47D; 0.0425 µM (active) in the experiment on UACC-257. Moreover, in the experiment with UACC-62, the GI50 is 0.00148 µM (active).

`COCCOC(=O)c1c(C)[n+]([O-])c2cc(Cl)c(Cl)cc2[n+]1[O-]`: the GI50 is 20.3 µM (inactive) with A498; 12.7 µM (inactive) with A549; 12.7 µM (inactive) in the experiment with ACHN; 9.29 µM (inactive) with CCRF-CEM; 11.5 µM (inactive) in the experiment on DU-145; 5.21 µM (inactive) in the experiment on HOP-92. For the same compound, the GI50 with MDA-MB-435 is 17.5 µM (inactive); in the experiment with NCI-H23, 19.8 µM (inactive); in the experiment with NCI/ADR-RES, 11 µM (inactive); with OVCAR-3 it was 13.4 µM (inactive); in the experiment with OVCAR-4 it was 14.4 µM (inactive); with OVCAR-5, 16.7 µM (inactive). The GI50 in the experiment on PC-3 is 21.3 µM (inactive); with RPMI-8226, 4.69 µM (inactive); with SK-MEL-5, 7.6 µM (inactive); in the experiment on SR, 4.76 µM (inactive); with T47D, 4.68 µM (inactive); in the experiment on UACC-257, 20.2 µM (inactive). The GI50 with UACC-62 is 14.8 µM (inactive).

As to `Cc1c2cc[n+](CCN3CCCCC3)cc2c(C)c2c1[nH]c1ccc(O)cc12`, the GI50 in the experiment with A498 was 10.6 µM (inactive); in the experiment with A549, 1.35 µM (inactive); with ACHN, 5.92 µM (inactive); in the experiment with CCRF-CEM, 1.11 µM (active); with DU-145 it was 1.89 µM (inactive); in the experiment on HOP-92, 5.11 µM (inactive). Further, the GI50 with MDA-MB-435 is 10.2 µM (inactive); in the experiment with NCI-H23, 5.46 µM (inactive); in the experiment with NCI/ADR-RES, 16.3 µM (inactive); in the experiment on OVCAR-3 it was 6.05 µM (inactive); in the experiment with OVCAR-4, 1.13 µM (inactive); in the experiment with OVCAR-5, 10.5 µM (inactive). Besides, the GI50 in the experiment with PC-3 is 7.96 µM (inactive); in the experiment with RPMI-8226 it was 2.48 µM (inactive); with SK-MEL-5, 2.54 µM (inactive); with SR it was 0.0723 µM (active); in the experiment on T47D, 2.82 µM (inactive); in the experiment with UACC-257, 13.7 µM (inactive). Further, in the experiment with UACC-62, the GI50 is 5.47 µM (inactive).

For the compound `CCOC(=O)c1c(SC(=O)/C=C/c2ccccc2)n(-c2ccccc2)c(=S)n(-c2ccccc2)c1=O`, the GI50 with A498, in the experiment with A549, in the experiment on ACHN, with CCRF-CEM, with DU-145 and in the experiment with HOP-92 was > 100 µM (inactive) in each case. Moreover, the GI50 in the experiment on MDA-MB-435, in the experiment on NCI-H226, in the experiment with NCI-H23, in the experiment on NCI/ADR-RES, in the experiment with OVCAR-3 and in the experiment on OVCAR-4 was > 100 µM (inactive) throughout. Besides, the GI50 with OVCAR-5, in the experiment on PC-3, in the experiment with SR, in the experiment on T47D, with UACC-257 and in the experiment with UACC-62 was > 100 µM (inactive) each time.

Consider `COC1(OC)N=C(N)C2(C#N)C3(C(=O)N(C(C)C)N=C3C)C12C#N` (stereo unspecified), for which the GI50 in the experiment with A498, in the experiment on A549, in the experiment on ACHN, in the experiment with CCRF-CEM, in the experiment with DU-145 and in the experiment on HOP-92 was > 100 µM (inactive) throughout. Besides, the GI50 with MDA-MB-435 was > 100 µM (inactive); with NCI-H226, > 100 µM (inactive); in the experiment on NCI-H23, > 100 µM (inactive); in the experiment with NCI/ADR-RES, > 100 µM (inactive); with OVCAR-3, 49.7 µM (inactive); with OVCAR-4, > 100 µM (inactive). Moreover, the GI50 with OVCAR-5, in the experiment on PC-3, in the experiment on RPMI-8226, in the experiment with SR, in the experiment on T47D and in the experiment on UACC-257 was > 100 µM (inactive) in each case. Moreover, the GI50 in the experiment with UACC-62 was > 100 µM (inactive).

As for `Cn1c(N)c(/C=N/NC(=O)CC#N)c(=O)n(C)c1=O`, the GI50 with A498, in the experiment with A549, in the experiment with ACHN, with CCRF-CEM, in the experiment on DU-145 and in the experiment on MDA-MB-435 was > 100 µM (inactive) in each case. Further, the GI50 in the experiment with NCI-H226, with NCI/ADR-RES, in the experiment on OVCAR-3, with OVCAR-4, with OVCAR-5 and in the experiment on PC-3 was > 100 µM (inactive) throughout. Also, the GI50 in the experiment with RPMI-8226, in the experiment on SK-MEL-5, with SR, in the experiment with T47D, in the experiment on UACC-257 and in the experiment on UACC-62 was > 100 µM (inactive) in each case.

Consider `COc1ccc2[nH]c(CCNC(=O)c3cc([N+](=O)[O-])cc([N+](=O)[O-])c3)cc2c1`, for which the GI50 in the experiment with A498 is > 100 µM (inactive); in the experiment on A549, > 100 µM (inactive); in the experiment on CCRF-CEM, > 100 µM (inactive); in the experiment on DU-145 it was > 100 µM (inactive); in the experiment on HOP-92 it was 21.2 µM (inactive); in the experiment on MDA-MB-435 it was > 100 µM (inactive). The GI50 in the experiment with NCI-H226 was 71.1 µM (inactive); in the experiment on NCI-H23, 47.9 µM (inactive); in the experiment on NCI/ADR-RES, > 100 µM (inactive); in the experiment with OVCAR-3, > 100 µM (inactive); with OVCAR-4, > 100 µM (inactive); with PC-3, > 100 µM (inactive). For the same compound, the GI50 with RPMI-8226 was > 100 µM (inactive); in the experiment with SK-MEL-5, > 100 µM (inactive); in the experiment on SR it was > 100 µM (inactive); in the experiment with T47D, 29.9 µM (inactive); in the experiment with UACC-257 it was > 100 µM (inactive); in the experiment on UACC-62, 36.1 µM (inactive).

With `Cc1ccc(C)n1-n1c(-c2ccccc2)n[nH]c1=O`, the GI50 with A498 is > 100 µM (inactive); with A549, > 100 µM (inactive); in the experiment with ACHN, > 100 µM (inactive); in the experiment with CCRF-CEM, > 100 µM (inactive); in the experiment with DU-145, > 100 µM (inactive); with MDA-MB-435, 21.2 µM (inactive). The GI50 with NCI-H226, in the experiment on NCI/ADR-RES, in the experiment on OVCAR-3, in the experiment with OVCAR-4, in the experiment with OVCAR-5 and in the experiment with PC-3 was > 100 µM (inactive) in each case. Besides, the GI50 was > 100 µM (inactive) in the experiment on RPMI-8226; > 100 µM (inactive) in the experiment on SK-MEL-5; 51.9 µM (inactive) with SR; > 100 µM (inactive) in the experiment on T47D; > 100 µM (inactive) in the experiment on UACC-257; > 100 µM (inactive) in the experiment on UACC-62.

With `CSC1=C(C)S/C(=C\c2ccc(/C=C3\SC(C)=C(SC)S3)cc2)S1`, the GI50 in the experiment on A498 was > 100 µM (inactive); in the experiment on A549 it was > 100 µM (inactive); in the experiment with ACHN, > 100 µM (inactive); with CCRF-CEM, > 100 µM (inactive); with DU-145, > 100 µM (inactive); in the experiment on HOP-92, 39.3 µM (inactive). In addition, the GI50 in the experiment with MDA-MB-435 is > 100 µM (inactive); in the experiment on NCI-H226, 92.5 µM (inactive); in the experiment on NCI-H23 it was > 100 µM (inactive); in the experiment with NCI/ADR-RES it was > 100 µM (inactive); in the experiment on OVCAR-3 it was > 100 µM (inactive); with OVCAR-4, > 100 µM (inactive). Moreover, the GI50 with OVCAR-5, in the experiment on PC-3, in the experiment on SK-MEL-5, in the experiment on SR, with T47D and with UACC-257 was > 100 µM (inactive) in each case. In addition, the GI50 with UACC-62 was > 100 µM (inactive).

For `O=[N+]([O-])c1cccc([N+](=O)[O-])c1Cl`, the GI50 was 21.8 µM (inactive) in the experiment on A498; 14.9 µM (inactive) with A549; 14.7 µM (inactive) in the experiment on ACHN; 2.86 µM (inactive) with DU-145; 18.8 µM (inactive) in the experiment on HOP-92; 17.9 µM (inactive) in the experiment on MDA-MB-435. The GI50 with NCI-H226 is 27 µM (inactive); with NCI-H23, 16.6 µM (inactive); in the experiment with NCI/ADR-RES, 21.7 µM (inactive); with OVCAR-3 it was 1.29 µM (inactive); in the experiment on OVCAR-4 it was 22.8 µM (inactive); in the experiment with OVCAR-5, 19.1 µM (inactive). The GI50 in the experiment with PC-3 was 13.5 µM (inactive); in the experiment on RPMI-8226, 1.15 µM (inactive); in the experiment on SK-MEL-5, 16.4 µM (inactive); in the experiment with SR, 3.93 µM (inactive); with T47D, 2.96 µM (inactive); in the experiment on UACC-257, 11 µM (inactive). For the same compound, in the experiment on UACC-62, the GI50 was 17.5 µM (inactive).
